Converted amounts (≈) assume the structure as drawn. Where two headings read alike, the source gives them in different places.
What was measured:
E. faecalis 6 = test: MIC, agar dilution method in Mueller Hinton agar; type: cell-based; details: inoculum 10^4 CFU/spot
Protocol: (§1) Representative compounds of the present invention were tested. In vitro activity was determined by minimum inhibitory concentration in a microorganism spectrum by the agar dilution method in Mueller Hinton agar, inoculum=10^4 CFU/spot.

S. aureus 270A (MRSA) = test: MIC, agar dilution method in Mueller Hinton agar; type: cell-based; details: inoculum 10^4 CFU/spot
Protocol: as §1

S. aureus 6538 (MSSA) = test: MIC, agar dilution method in Mueller Hinton agar; type: cell-based; details: inoculum 10^4 CFU/spot
Protocol: as §1

S. pneumoniae 907 = test: MIC, agar dilution method in Mueller Hinton agar; type: cell-based; details: inoculum 10^4 CFU/spot
Protocol: as §1

S. aureus 42080 (MRSA) = test: MIC against MRSA alone or in combination with imipenem or compound X, agar dilution; type: cell-based, Staphylococcus aureus; details: inoculum 10^5 CFU/spot; for MIC: Staphylococcus aureus, MRSA
Source text: (§2) For example, the combination with carbapenem antibiotics such as imipenem, or with β-lactamase-inhibitors such as (Z)-(2S,3S,5R)-3-(2-cyanoethenyl)-3-methyl-4,4,7-trioxo-4-thia-1-aza-bicyclo[3.2.0]heptane-2-carboxylic acid (below named “compound X”), enhances the antibacterial activity of compounds I against highly resistant strains of Graem-positive bacterias, e.g. methicillin-resistant strains of Staphylococcus aureus.

S. aureus SPO-19 (MRSA) = test: as above; type: cell-based, Staphylococcus aureus; details: inoculum 10^5 CFU/spot; for MIC: Staphylococcus aureus, MRSA
Source text: as §2

[1] = Enterococcus faecalis, read-out: MIC
[2] = Staphylococcus aureus, read-out: MIC
[3] = Streptococcus pneumoniae, read-out: MIC
[4] = in combination with Compound X (μg/ml, concentration not given)
[5] = in combination with Imipenem (4 μg/ml)

Compound `O=C(CSc1nc2ccccc2s1)N[C@@H]1C(=O)N2C(C(=O)[O-])=C(/C=C/C[n+]3ccccc3)CS[C@H]12` [Example 2, (E)-(6R,7R)-7-[2-(benzothiazol-2-ylsulfanyl)-acetylamino]-8-oxo-3-(3-pyridin-1-ium-1-yl-propenyl)-5-thia-1-aza-bicyclo[4.2.0]oct-2-ene-2-carboxylate] has an MIC (E. faecalis 6; [1]) of 2 µg/mL (≈ 3.81 µM), an MIC (S. aureus 270A (MRSA); [2]) of 2 µg/mL (≈ 3.81 µM) and an MIC (S. aureus 6538 (MSSA); [2]) of less than 0.1 µg/mL. The MIC (S. pneumoniae 907; [3]) was less than 0.1 µg/mL.
`Cc1cccc[n+]1C/C=C/C1=C(C(=O)[O-])N2C(=O)[C@@H](NC(=O)CSc3ccc4ccccc4c3)[C@H]2SC1` [Example 7, (E)-(6R,7R)-3-[3-(2-Methyl-pyridin-1-ium-1-yl)-propenyl]-7-[2-(naphthalen-2-ylsulfanyl)-acetylamino]-8-oxo-5-thia-1-aza-bicyclo[4.2.0]oct-2-ene-2-carboxylate] showed an MIC (E. faecalis 6; [1]) of 1 µg/mL (≈ 1.88 µM), an MIC (S. aureus 270A (MRSA); [2]) of 2 µg/mL (≈ 3.76 µM) and an MIC (S. aureus 6538 (MSSA); [2]) of less than 0.1 µg/mL. For the same compound, the MIC (S. pneumoniae 907; [3]) was less than 0.1 µg/mL.
For `O=C(CSc1ccc2ccccc2c1)N[C@@H]1C(=O)N2C(C(=O)[O-])=C(/C=C/C[n+]3cccc(O)c3)CS[C@H]12` [Example 9, (E)-(6R,7R)-3-[3-(3-Hydroxy-pyridin-1-ium-1-yl)-propenyl]-7-[2-(naphtalen-2-ylsulfanyl)-acetylamino]-8-oxo-5-thia-1-aza-bicyclo[4.2.0]oct-2-ene-2-carboxylate], the MIC (E. faecalis 6) was 0.5 µg/mL (≈ 0.937 µM), the MIC (S. aureus 270A (MRSA)) was 2 µg/mL (≈ 3.75 µM) and the MIC (S. aureus 6538 (MSSA)) was less than 0.1 µg/mL. For the same compound, the MIC (S. pneumoniae 907) was less than 0.1 µg/mL.
`O=C(CSc1ccc2ccccc2c1)N[C@@H]1C(=O)N2C(C(=O)[O-])=C(/C=C/C[n+]3cccc4ccccc43)CS[C@H]12` [Example 13, (E)-(6R,7R)-7-[2-(Naphthalen-2-ylsulfanyl)-acetylamino]-8-oxo-3-(3-quinolin-1-ium-1-yl-propenyl)-5-thia-1-aza-bicyclo[4.2.0]oct-2-ene-2-carboxylate] gave an MIC (E. faecalis 6; [1]) of 0.25 µg/mL (≈ 0.44 µM), an MIC (S. aureus 270A (MRSA); [2]) of 1 µg/mL (≈ 1.76 µM) and an MIC (S. aureus 6538 (MSSA); [2]) of less than 0.1 µg/mL. For the same compound, the MIC (S. pneumoniae 907; [3]) was less than 0.1 µg/mL.
For `C[N+]1(C/C=C/C2=C(C(=O)[O-])N3C(=O)[C@@H](NC(=O)CSc4ccc5ccccc5c4)[C@H]3SC2)CCCC1` [Example 15], the MIC (E. faecalis 6) was 0.5 µg/mL (≈ 0.955 µM), the MIC (S. aureus 270A (MRSA)) was 2 µg/mL (≈ 3.82 µM) and the MIC (S. aureus 6538 (MSSA)) was less than 0.1 µg/mL. The MIC (S. pneumoniae 907) was less than 0.1 µg/mL.
`C[N+](C)(C/C=C/C1=C(C(=O)[O-])N2C(=O)[C@@H](NC(=O)CSc3ccc4ccccc4c3)[C@H]2SC1)CC(N)=O` [Example 19, (E)-(6R,7R)-3-[3-(Carbamoylmethyl-dimethyl-ammonio)-propenyl]-7-[2-(naphtalen-2-ylsulfanyl)-acetylamino]-8-oxo-5-thia-1-aza-bicyclo[4.2.0]oct-2-ene-2-carboxylate] was tested, and the MIC (E. faecalis 6) was 0.5 µg/mL (≈ 0.925 µM), the MIC (S. aureus 270A (MRSA)) was 1 µg/mL (≈ 1.85 µM) and the MIC (S. aureus 6538 (MSSA)) was less than 0.1 µg/mL. The MIC (S. pneumoniae 907) was less than 0.1 µg/mL.
With `O=C(CSc1ccc2ccccc2c1)N[C@@H]1C(=O)N2C(C(=O)[O-])=C(/C=C/C[n+]3ccccc3)CS[C@H]12` [Example 22, (E)-(6R,7R)-7-[2-(naphthalen-2-ylsulfanyl)-acetylamino]-8-oxo-3-(3-pyridin-1-ium-1-yl-propenyl)-5-thia-1-aza-bicyclo[4.2.0]oct-2-ene-2-carboxylate] the MIC (E. faecalis 6; [1]) was 0.5 µg/mL (≈ 0.966 µM), the MIC (S. aureus 270A (MRSA); [2]) was 1 µg/mL (≈ 1.93 µM) and the MIC (S. aureus 6538 (MSSA); [2]) was less than 0.1 µg/mL. For the same compound, the MIC (S. pneumoniae 907; [3]) was less than 0.1 µg/mL, the MIC (S. aureus 42080 (MRSA); compound alone) was 4 µg/mL and the “MIC against MRSA” value (S. aureus 42080 (MRSA); [4]) was 1 µg/mL. The “MIC against MRSA” value (S. aureus 42080 (MRSA); [5]) was 1 µg/mL, the MIC (S. aureus SPO-19 (MRSA); compound alone) was 4 µg/mL and the “MIC against MRSA” value (S. aureus SPO-19 (MRSA); [4]) was 0.5 µg/mL. The “MIC against MRSA” value (S. aureus SPO-19 (MRSA); [5]) was 1 µg/mL.
Compound `C[N+](C)(C/C=C/C1=C(C(=O)[O-])N2C(=O)[C@@H](NC(=O)CSc3nc4ccccc4s3)[C@H]2SC1)CCO` [Example 41, (E)-(6R,7R)-3-[3-[Dimethyl-(2-hydroxy-ethyl)-ammonio]-propenyl]-7-[2-(benzothiazol-2-ylsulfanyl)-acetylamino]-8-oxo-5-thias1-aza-bicyclo[4.2.0]oct-2-ene-2-carboxylate] has an MIC (E. faecalis 6) of 1 µg/mL (≈ 1.87 µM), an MIC (S. aureus 270A (MRSA)) of 4 µg/mL (≈ 7.48 µM) and an MIC (S. aureus 6538 (MSSA)) of less than 0.1 µg/mL. For the same compound, the MIC (S. pneumoniae 907) was less than 0.1 µg/mL.
For `O=C(CSc1ccc2ccccc2c1)N[C@@H]1C(=O)N2C(C(=O)[O-])=C(/C=C/C[N+]34CCN(CC3)CC4)CS[C@H]12` [Example 59, (E)-(6R,7R)-3-[3-(4-Aza-1-azonia-bicyclo[2,2,2]octan-1-yl)-propenyl]-7-[2-(naphthalen-2-ylsulfanyl)-acetylamino]-8-oxo-5-thia-1-aza-bicyclo[4.2.0]oct-2-ene-2-carboxylate], the MIC (E. faecalis 6; [1]) was 2 µg/mL (≈ 3.63 µM), the MIC (S. aureus 270A (MRSA); [2]) was 2 µg/mL (≈ 3.63 µM) and the MIC (S. aureus 6538 (MSSA); [2]) was less than 0.1 µg/mL. The MIC (S. pneumoniae 907; [3]) was less than 0.1 µg/mL, the MIC (S. aureus 42080 (MRSA); compound alone) was 4 µg/mL and the “MIC against MRSA” value (S. aureus 42080 (MRSA); [5]) was 2 µg/mL. The MIC (S. aureus SPO-19 (MRSA); compound alone) was 4 µg/mL and the “MIC against MRSA” value (S. aureus SPO-19 (MRSA); [5]) was 1 µg/mL.
`C[N+](C)(C/C=C/C1=C(C(=O)[O-])N2C(=O)[C@@H](NC(=O)CSc3ccc4ccccc4c3)[C@H]2SC1)CCCO` [Example 62, (E)-(6R,7R)-3-[3-[(3-Hydroxy-propyl)-dimethyl-ammonio]-propenyl]-7-[2-(naphthalen-2-ylsulfanyl)-acetylamino]-8-oxo-5-thia-1-aza-bicyclo[4.2.0]oct-2-ene-2-carboxylate] showed an MIC (E. faecalis 6; [1]) of 1 µg/mL (≈ 1.85 µM), an MIC (S. aureus 270A (MRSA); [2]) of 2 µg/mL (≈ 3.69 µM) and an MIC (S. aureus 6538 (MSSA); [2]) of less than 0.1 µg/mL. For the same compound, the MIC (S. pneumoniae 907; [3]) was less than 0.1 µg/mL, the MIC (S. aureus 42080 (MRSA); compound alone) was 4 µg/mL and the “MIC against MRSA” value (S. aureus 42080 (MRSA); [5]) was 2 µg/mL. The MIC (S. aureus SPO-19 (MRSA); compound alone) was 2 µg/mL and the “MIC against MRSA” value (S. aureus SPO-19 (MRSA); [5]) was 1 µg/mL.
For `C[N+](C)(C/C=C/C1=C(C(=O)[O-])N2C(=O)[C@@H](NC(=O)CSc3nc4ccccc4s3)[C@H]2SC1)C(CO)CO` [Example 67, (E)-(6R,7R)-7-[2-(Benzothiazol-2-ylsulfanyl)-acetylamino]-8-oxo-3-[3-[(2-hydroxy-1-hydroxymethyl-ethyl)-dimethyl-ammonio]-propenyl]-5-thia-1-aza-bicyclo[4.2.0]oct-2-ene-2-carboxylate], the MIC (E. faecalis 6; [1]) was 1 µg/mL (≈ 1.77 µM), the MIC (S. aureus 270A (MRSA); [2]) was 2 µg/mL (≈ 3.54 µM) and the MIC (S. aureus 6538 (MSSA); [2]) was less than 0.1 µg/mL. It also gave an MIC (S. pneumoniae 907; [3]) of less than 0.1 µg/mL.
`C[N+](C)(C/C=C/C1=C(C(=O)[O-])N2C(=O)[C@@H](NC(=O)CSc3ccc4cc(C(=O)O)ccc4c3)[C@H]2SC1)CC(N)=O` [Example 99] showed an MIC (E. faecalis 6) of 4 µg/mL (≈ 6.84 µM), an MIC (S. aureus 270A (MRSA)) of 2 µg/mL (≈ 3.42 µM) and an MIC (S. aureus 6538 (MSSA)) of less than 0.1 µg/mL. It also gave an MIC (S. pneumoniae 907) of less than 0.1 µg/mL.
`C[C@@H](O)[C@H]1C(=O)N2C(C(=O)O)=C(SCCN=CN)C[C@H]12` [Imipenem, imipenem, reference compound] was tested, and the MIC (S. aureus 42080 (MRSA); compound alone) was greater than 16 µg/mL and the MIC (S. aureus SPO-19 (MRSA); compound alone) was greater than 16 µg/mL.
With “(E)-(6R,7R)-8-Oxo-3-(3-pyridin-1-ium-1-yl-propenyl)-7-[2-(2,4,5-trichlorophenylsulfanyl)-acetylamino]-5-thia-1-aza-bicyclo[4.2.0]oct-2-ene-2-carboxylate [Example 6]” the MIC (E. faecalis 6) was 0.25 µg/mL, the MIC (S. aureus 270A (MRSA)) was 1 µg/mL and the MIC (S. aureus 6538 (MSSA)) was less than 0.1 µg/mL. The MIC (S. pneumoniae 907) was less than 0.1 µg/mL, the “MIC against MRSA” value (S. aureus 42080 (MRSA); compound alone) was 8 µg/mL and the “MIC against MRSA” value (S. aureus 42080 (MRSA); [5]) was 1 µg/mL. For the same compound, the “MIC against MRSA” value (S. aureus SPO-19 (MRSA); compound alone) was 4 µg/mL and the “MIC against MRSA” value (S. aureus SPO-19 (MRSA); [5]) was 0.5 µg/mL.

Source: patent US6583133B1, “Propenyl cephalosporin derivatives and process for the manufacture thereof” (Basilea Pharmaceutica AG, priority 1998, dated 2003)
